Like-named read-outs stand apart in the source and are kept apart here.
How the values were obtained:
Assay type in all cases: in vivo, Swiss male mice
Conditions in all cases: Mus musculus, po, read-out: % inhibition of contortions
[1] = system: contortions induced by phenylbenzoquinone in mice; assay: Analgesic activity: inhibition of the contortions induced by phenylbenzoquinone in mice (Siegmund's method)
Method: Analgesic activity: Inhibition of the contortions induced by phenylbenzoquinone in mice--Siegmund's method (E. Siegmund, R. Cadmus and G. Lu, Proc Soc. Exp. Biol. Med., 95, 729 (1957))
(§1) Swiss male mice weighing 17-22 grams are used. Groups containing a minimum of 4 animals are used.
Contortions are induced by the intraperitoneal injection of phenyl-p-benzoquinone (25 ml/kg of a 0.02% solution in a solution of ethanol at a concentration of 5% (v/v) in distilled water, with Evans blue in a proportion of 0.1% (w/v)) and are counted for 15 minutes as from the time of injection. Each product is suspended or dissolved in gum arabic at a concentration of 5% (w/v) in distilled water and is administered orally, at a dose of 160 mg/kg, 60 minutes before the injection of phenylbenzoquinone. The inhibition of contortions due to each product is determined, taking as the reference the contortions in a group of control animals to which only the vehicle is administered orally 60 minutes before the phenylbenzoquinone.

[2] = system: contortions induced by acetylcholine bromide in mice; assay: Analgesic activity: inhibition of the contortions induced by acetylcholine bromide in mice (Collier's method)
Method: as §1
Contortions are induced by the intraperitoneal injection of acetylcholine bromide (7.2 mg/kg, dissolved in physiological serum, a volume of 10 ml/kg of weight being administered) at the start of the experiment and the number of contortions is counted for 5 minutes, this being the reference number for each animal (mice with fewer than 2 contortions are rejected). Immediately afterwards, the test products are administered orally, at a dose of 160 mg/kg, in the form of a suspension or solution in gum arabic at a concentration of 5% (w/v) in distilled water. 40 and 120 minutes after the treatment, acetylcholine bromide is administered again, the contortions are noted and the readings at 40 and 120 minutes are evaluated, taking the contortions of the initial reading as the reference.

[3] = system: contortions induced by acetic acid in mice; assay: Analgesic activity: inhibition of the contortions induced by acetic acid in mice (Koster's method)
Method: Swiss male mice weighing 17-22 grams are used. Groups containing a minimum of 4 animals for each dose are used.
Each product is suspended or dissolved in gum arabic at a concentration of 5% (w/v) in distilled water and is administered orally, at a dose of 160 mg/kg, 60 minutes before the injection of acetic acid.

[4] = 160 mg/kg, administered orally 60 minutes before phenylbenzoquinone i.p., contortions counted for 15 minutes
[5] = 160 mg/kg, administered orally, acetylcholine bromide 7.2 mg/kg i.p., mean of the values at 40 and 120 minutes
[6] = 160 mg/kg, administered orally 60 minutes before acetic acid i.p., contortions counted for 15 minutes

| SMILES | inhibition in vivo at 160 mg/kg [1, 4] [%] | inhibition in vivo at 160 mg/kg [2, 5] [%] | other results |
| --- | --- | --- | --- |
| CN(C)CCCOC(C)(c1ccccc1)c1ccnn1C (stereo not drawn) [Example 95] | 45 |  |  |
| CN(C)CCOC(c1ccc(Cl)c(Cl)c1)c1nccn1C (stereo not drawn) [Example 19] | 87.5 |  |  |
| CCCCC(OCCCN(C)C)(c1cccc(C(F)(F)F)c1)c1nccn1C (stereo not drawn) [Example 76] |  | 100 |  |
| Cn1nccc1C(OCCN1CCCC1)c1ccccc1 (stereo not drawn) [Example 34] |  |  | inhibition in vivo at 160 mg/kg [1]: 40% |
| Cn1ccnc1C(O)c1ccc(C(F)(F)F)cc1 (stereo not drawn) [Example 111] |  | 87.5 |  |
| CCCCC(OCCN(C)C)(c1cccc(Cl)c1)c1nccn1C (stereo not drawn) [Example 9] |  | 97.5 |  |
| CCCCn1ccnc1C(O)c1ccc(Cl)cc1Cl (stereo not drawn) [Example 115] | 39.5 |  | inhibition in vivo at 160 mg/kg [3, 6]: 50% |
| CN(C)CCCOC(C)(c1ccc(F)cc1)c1nccn1C (stereo not drawn) [Example 64] |  | 100 | inhibition in vivo at 160 mg/kg [3, 6]: 50% |
| CC(=O)Oc1ccccc1C(=O)O [Acetylsalicylic acid, reference compound] |  |  | inhibition in vivo at 160 mg/kg [1]: 75%; inhibition in vivo at 160 mg/kg [2]: 92.5%; inhibition in vivo at 160 mg/kg [3]: 72.5% |
| CN(C)CCOC(C)(c1ccccc1)c1ccnn1C (stereo not drawn) [Example 32] | 37.5 |  |  |
| Cc1cc(C(C)(OCCN(C)C)c2ccccc2)n(C)n1 (stereo not drawn) [Example 38] | 42.5 |  |  |
| COc1cc(C(C)(OCCCN(C)C)c2nccn2C)cc(OC)c1OC (stereo not drawn) [Example 68] |  | 95 |  |
| CCCCn1ccnc1C(C)(OCCCN(C)C)c1ccc(Cl)cc1 (stereo not drawn) [Example 77] |  | 100 |  |
| Cn1ccnc1C(C)(OCCN1CCCC1)c1cccc(Cl)c1 (stereo not drawn) [Example 12] |  |  | inhibition in vivo at 160 mg/kg [3, 6]: 82.5% |
| CCC(OCCCN(C)C)(c1ccc(Cl)cc1)c1nccn1C (stereo not drawn) [Example 61] |  | 97.5 |  |
| Cn1ccnc1C(O)c1ccc(Cl)cc1 (stereo not drawn) [Example 107] |  | 57.5 |  |
| Cn1ccnc1C(C)(O)c1ccc(Cl)cc1 (stereo not drawn) [Example 121, α-(4-chlorophenyl)-α-methyl-1-methyl-1H-imidazole-2-methanol] |  | 70 |  |
| CCCCC(O)(c1cccc(C(F)(F)F)c1)c1nccn1C (stereo not drawn) [Example 129] |  | 55 |  |
| CN(C)CCCOC(c1cccc(C(F)(F)F)c1)c1nccn1C (stereo not drawn) [Example 73] |  | 100 |  |
| CCCCn1ccnc1C(OCCN(C)C)c1ccc(C(F)(F)F)cc1 (stereo not drawn) [Example 14] |  | 85 |  |
| CN(C)CCOC(c1cccc(Cl)c1)c1nccn1C (stereo not drawn) [Example 4] |  | 95 |  |

| SMILES | inhibition in vivo at 160 mg/kg [1, 4] [%] | inhibition in vivo at 160 mg/kg [2, 5] [%] | other results |
| --- | --- | --- | --- |
| CCCCn1ccnc1C(O)(CCCC)c1cc(OC)c(OC)c(OC)c1 (stereo not drawn) [Example 141] |  | 62.5 |  |
| CN(C)CCCOC(c1ccc(Cl)c(Cl)c1)c1nccn1C (stereo not drawn) [Example 87] | 77.5 |  |  |
| CCCCn1ccnc1C(O)(CCCC)c1ccc(Cl)cc1Cl (stereo not drawn) [Example 144] |  | 88.8 |  |
| Cc1cc(C(OCCN(C)C)c2ccccc2)n(C)n1 (stereo not drawn) [Example 39] | 37.5 |  |  |
| CN(C)CCCn1ccnc1C(C)(O)c1ccc(Cl)cc1 (stereo not drawn) [Example 146] | 28.5 |  |  |
| Cn1ccnc1C(OCCCN1CCCCC1)c1ccc(Cl)cc1 (stereo not drawn) [Example 82] |  | 83.8 |  |
| CCCCn1ccnc1C(O)c1cc(OC)c(OC)c(OC)c1 (stereo not drawn) [Example 117] |  | 60 |  |
| COc1cc(C(C)(O)c2nccn2C)cc(OC)c1OC (stereo not drawn) [Example 137] |  | 85 |  |
| CN(C)CCOC(C)(c1ccc(Cl)cc1)c1nccn1C (stereo not drawn) [Example 2] |  | 100 |  |
| CN(C)CCOC(C)(c1ccc(Cl)c(Cl)c1)c1nccn1C (stereo not drawn) [Example 18] | 82.5 |  |  |
| CN(C)CCCOC(C)(c1ccc(C(F)(F)F)cc1)c1nccn1C (stereo not drawn) [Example 72] |  | 100 |  |
| CN(C)CCOC(c1ccccc1)c1c(Br)cnn1C (stereo not drawn) [Example 37] | 77.5 |  | inhibition in vivo at 160 mg/kg [3, 6]: 72.5% |
| CCCCn1ccnc1C(O)(CCCC)c1ccccc1Cl (stereo not drawn) [Example 142] |  | 80 |  |
| CN(C)CCOC(C)(c1cccc(C(F)(F)F)c1)c1nccn1C (stereo not drawn) [Example 7] |  | 95 | inhibition in vivo at 160 mg/kg [3, 6]: 67.5% |
| CN(C)CCOC(C)(c1ccc(Cl)cc1)c1nccn1CCN1CCCCC1 (stereo not drawn) [Example 20] | 25 |  |  |
| COc1ccc(C(C)(O)c2nccn2C)cc1 (stereo not drawn) [Example 133] |  | 52.5 |  |
| CCCCn1nccc1C(C)(OCCN(C)C)c1ccc(Cl)cc1 (stereo not drawn) [Example 30] | 27.5 |  |  |
| CN(C)CCCOC(C)(c1ccc(Cl)cc1)c1nccn1C (stereo not drawn) [Example 59, α-(4-chlorophenyl)-α-methyl-1-methyl-0-(3-dimethylaminopropyl)-1H-imidazole-2-methanol] |  | 100 | inhibition in vivo at 160 mg/kg [3, 6]: 87.5% |
| CN(C)CCOC(C)(c1ccccc1Cl)c1nccn1C (stereo not drawn) [Example 5] |  | 100 |  |
| Cn1ccnc1C(C)(O)c1cccc(C(F)(F)F)c1 (stereo not drawn) [Example 128] | 67.5 | 82.5 | inhibition in vivo at 160 mg/kg [3, 6]: 52.5% |
| Cn1ccnc1C(C)(O)c1ccccc1Cl (stereo not drawn) [Example 126] |  | 65 |  |

| SMILES | inhibition in vivo at 160 mg/kg [1, 4] [%] | inhibition in vivo at 160 mg/kg [2, 5] [%] | other results |
| --- | --- | --- | --- |
| CN(C)CCCOC(c1ccccc1)c1ccnn1C (stereo not drawn) [Example 94] | 40 |  |  |
| CN1CCOC(c2ccccc2)c2ccccc2C1 (stereo not drawn) [Nefopam, reference compound] | 97.5 | 100 | inhibition in vivo at 160 mg/kg [3, 6]: 98% |
| CN(C)CCOC(C)(c1ccc(F)cc1)c1nccn1C (stereo not drawn) [Example 6] |  | 75 | inhibition in vivo at 160 mg/kg [3, 6]: 50% |
| CN(C)CCCOC(c1ccc(Cl)cc1)c1nccn1C (stereo not drawn) [Example 70] |  | 100 |  |
| Cn1ccnc1C(C)(OCCCN1CCCCC1)c1ccc(C(F)(F)F)cc1 (stereo not drawn) [Example 83] |  | 88.3 |  |
| CN(C)CCOC(C)(c1cccc(Cl)c1)c1nccn1C (stereo not drawn) [Example 8] |  | 95 |  |
| Cn1ccnc1C(O)c1ccc(Cl)c(Cl)c1 (stereo not drawn) [Example 113] | 57.5 |  |  |
| Cn1ccnc1C(O)c1cccc(C(F)(F)F)c1 (stereo not drawn) [Example 110, 1-methyl-α-(3-trifluoromethylphenyl)-1H-imidazole-2-methanol] |  | 57.5 |  |
| CN(C)CCCOC(c1ccc(C(F)(F)F)cc1)c1nccn1C (stereo not drawn) [Example 74] |  | 100 |  |
| CCCCn1ccnc1C(O)c1ccc(Cl)cc1 (stereo not drawn) [Example 116] | 27.5 |  |  |
| COc1cc(C(OCCN(C)C)c2ccnn2C)cc(OC)c1OC (stereo not drawn) [Example 33] | 35 |  |  |
| CN(C)CCCOC(c1ccc(Cl)cc1)(c1nccn1C)C1CCN(C)CC1 (stereo not drawn) [Example 91] | 57.5 |  |  |
| CCCCn1nccc1C(OCCN(C)C)c1ccccc1 (stereo not drawn) [Example 27] | 40 |  |  |
| CN(C)CCCOC(C)(c1ccc(Cl)c(Cl)c1)c1nccn1C (stereo not drawn) [Example 86] | 98.8 |  | inhibition in vivo at 160 mg/kg [3, 6]: 50% |
| COc1ccc(C(C)(OCCCN(C)C)c2nccn2C)cc1 (stereo not drawn) [Example 69] |  | 95 |  |
| CN(C)CCOC(c1ccccc1)c1ccnn1C (stereo not drawn) [Example 31] | 80 |  | inhibition in vivo at 160 mg/kg [3, 6]: 80% |
| CC(=O)Nc1ccc(O)cc1 [Paracetamol, reference compound] | 47.5 | 72.5 | inhibition in vivo at 160 mg/kg [3, 6]: 20% |
| COc1ccc(C(OCCCN(C)C)c2nccn2C)cc1 (stereo not drawn) [Example 75] |  | 100 |  |
| CCCCC(O)(c1cccc(Cl)c1)c1nccn1C (stereo not drawn) [Example 119] |  | 90 | inhibition in vivo at 160 mg/kg [3, 6]: 45% |
| CCCCC(O)(c1ccccc1Cl)c1nccn1C (stereo not drawn) [Example 127] |  | 70 |  |
| CN(C)CCCOC(c1cccc(Cl)c1)c1nccn1C (stereo not drawn) [Example 60] |  | 82.5 | inhibition in vivo at 160 mg/kg [3, 6]: 62.5% |

— patent publication US5017596A, “Arylpyrazolylcarbinol compounds with analgesic activity” (Laboratorios del Dr. Esteve, S.A., priority 1987, dated 1991)
